Data published in patent US6723525B2, “Methods and compositions for screening modulators of lipid kinases” (Warner-Lambert Company, priority 2000, dated 2004).

Key:
[1] = biological target: sphingosine kinases (SPHKs) (Homo sapiens, UniProt Q9NYA1); conditions: cited from earlier work
[2] = biological target: T1, human sphingosine kinase (huSPHK1) (Homo sapiens, UniProt Q9NYA1); assay: Sphingosine kinase activity scintillation proximity assay (SPA) with extracts of transfected CHO or COS-7 cells; type: biochemical; conditions: FIG. 4B; read-out: ATP KM
T1 construct: made in house; host or cells: CHO and/or COS-7 cells, transiently transfected; raw cell extract after thaw/freeze cycles
T1 sequence (Q9NYA1 whole entry): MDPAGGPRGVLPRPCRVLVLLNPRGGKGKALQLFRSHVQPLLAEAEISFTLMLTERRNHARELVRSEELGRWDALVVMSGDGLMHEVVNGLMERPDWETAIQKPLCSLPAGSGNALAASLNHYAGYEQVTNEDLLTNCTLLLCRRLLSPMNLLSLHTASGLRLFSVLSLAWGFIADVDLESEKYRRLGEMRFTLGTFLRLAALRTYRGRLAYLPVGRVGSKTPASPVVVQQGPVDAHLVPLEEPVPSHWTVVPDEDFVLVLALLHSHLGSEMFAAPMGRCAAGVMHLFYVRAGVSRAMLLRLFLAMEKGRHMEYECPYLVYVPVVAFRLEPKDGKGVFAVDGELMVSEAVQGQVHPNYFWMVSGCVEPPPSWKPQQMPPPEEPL
Experimental: CHO and/or COS-7 cells were cultured in 90% Ham F12 medium, 10% foetal bovine serum, Gentamycin, in T-175 tissue culture flasks in air with 5% CO2 atmosphere at 37° C. CHO and/or COS-7 cells were transiently transfected with the vector pcDNA3 alone or vector containing the human sphingosine kinase cDNA, using the Qiagen reagent Superfect. They were seeded 5×10^6 per 175 cm^2 flask. After 24 hrs, cells were transfected with 10 μg of cDNA mixed with 20 μl Superfect for 6 hrs, washed, and cultured for 2 days in complete Ham medium. They were then trypsinized, centrifuged down at 1500 rpm for 10 min, and resuspended in assay buffer. They underwent 3 thaw/freeze cycles and protein concentration were estimated using the Bradfaord technique (Biorad kit). The protein concentration was adjusted to 1 μg/μl, and aliquots were kept frozen at −20° C. […]
100 μL/well of SPA beads emulsion (corresponding to 0.5 mg/well beads). The plate is covered with a transparent Topseal (Packard), stirred for 1 hour at 800 rpm and counted on a Wallac Trilux. […]
Taking advantage of the property of these supports, a two-steps assay was set up (see FIG. 1). […] The beads settle down for an hour, and the plate is read on a scintillation counter.
Optimization of assay conditions need also the determination of adequate quantities of ATP, sphingosine, and enzyme concentration. […]

Chain of sphingosine kinases (SPHKs) (Q9NYA1 whole entry): as above

Km [2] [µM] | Compound | Km [1] [µM]
 | CCCCCCCCCCCCC/C=C/[C@@H](O)[C@@H](N)CO [Sphingosine] | 5
~30 | Nc1ncnc2c1ncn2[C@@H]1O[C@H](COP(=O)(O)OP(=O)(O)OP(=O)(O)O)[C@@H](O)[C@H]1O [ATP] | 
